Results taken from PubChem BioAssay (NCI).
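Test compounds were applied to cells in 96-well plates for 48 hours at 5 doses. TGI is the concentration that stops growth completely.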

Columns and labels:
Assay in all cases: NCI tumour cell line growth inhibition, 48 h
[1] = tested on: HCT-15 colon
[2] = tested on: 786-0 renal
[3] = tested on: A549 NSCLC
[4] = tested on: RPMI-8226 leukemia
[5] = tested on: SK-MEL-2 melanoma
[6] = tested on: NCI-H522 lung
[7] = tested on: UACC-257 melanoma
[8] = tested on: UACC-62 melanoma
[9] = tested on: NCI/ADR-RES ovarian
[10] = tested on: MDA-MB-435
[11] = tested on: PC-3 prostate
[12] = tested on: SW-620 colon
[13] = tested on: IGROV1 ovarian
[14] = tested on: SK-MEL-28 melanoma
[15] = tested on: OVCAR-5 ovarian
[16] = tested on: SR leukemia
[17] = tested on: BT-549 breast
[18] = tested on: A498 renal
[19] = tested on: HL-60(TB) leukemia
[20] = tested on: K-562 leukemia
[21] = tested on: KM12 colon
[22] = tested on: CCRF-CEM leukemia
[23] = tested on: MDA-MB-231 breast
[24] = tested on: NCI-H23 lung
[25] = tested on: CAKI-1 renal
[26] = tested on: U251 CNS
[27] = tested on: NCI-H460 lung
[28] = tested on: MOLT-4 leukemia
[29] = tested on: SF-268 CNS
[30] = tested on: SNB-75 CNS
[31] = tested on: LOX IMVI melanoma
[32] = tested on: T-47D breast
[33] = tested on: UO-31 renal
[34] = tested on: SNB-19 CNS
[35] = tested on: SK-OV-3 ovarian
[36] = tested on: HS 578T breast
[37] = tested on: SK-MEL-5 melanoma
[38] = tested on: HOP-92 NSCLC
[39] = tested on: OVCAR-3 ovarian
[40] = tested on: HOP-62 NSCLC
[41] = tested on: SN12C renal
[42] = tested on: TK-10 renal
[43] = tested on: RXF 393 renal
[44] = tested on: SF-295 CNS
[45] = tested on: MALME-3M melanoma
[46] = tested on: HCT-116 colon
[47] = tested on: MCF7 breast
[48] = tested on: NCI-H226 lung
[49] = tested on: OVCAR-4 ovarian
[50] = tested on: ACHN renal
[51] = tested on: EKVX NSCLC
[52] = tested on: M14 melanoma
[53] = tested on: HT29 colon
[54] = tested on: SF-539 CNS
[55] = tested on: HCC-2998 colon
[56] = tested on: MDA-N
[57] = tested on: OVCAR-8 ovarian

Measured: TGI

Cc1cc(Br)cc(C)c1NC(=O)C(=O)Nn1c(=S)[nH]c2ccccc2c1=O
> 100 µM: all assays above
